Here are results for 18 molecules from PubChem BioAssay AID256 (DTP/NCI, 2004).

The assay concerns CD2F1 mice, L1210 leukemia ip, survival T/C. In words: NCI In Vivo Anticancer Drug Screen. Data for tumor model L1210 Leukemia (intraperitoneal) in CD2F1 (CDF1) mice. As to conditions: higher = longer survival. The procedure, abridged:
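In this screen, transplantable tumors were grown in mice given either the compound or its vehicle. Results were expressed as the treated measurement relative to the control measurement.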

Setting [1] is: endpoint: mean survival time, dose: 12.5 mg/kg/injection, schedule: Q01DX009 (ip), vehicle: saline.
Where [2] appears, read: endpoint: mean survival time, dose: 100.0 mg/kg/injection, schedule: Q01DX009 (ip), vehicle: saline with Tween-80.
Where [3] appears, read: endpoint: mean survival time, dose: 100.0 mg/kg/injection, schedule: Q01DX009 (ip), vehicle: saline.
[4] abbreviates: endpoint: mean survival time, dose: 200.0 mg/kg/injection, schedule: Q01DX009 (ip), vehicle: saline with Tween-80.
The mark [5] stands for this setting: endpoint: mean survival time, dose: 200.0 mg/kg/injection, schedule: Q01DX009 (ip), vehicle: saline.
The mark [6] stands for this setting: endpoint: mean survival time, dose: 12.5 mg/kg/injection, schedule: Q01DX009 (ip), vehicle: saline with Tween-80.

Where “and” joins values, the source holds several entries; their conditions need not be identical. Equal entries are not always repeated. Toxic doses and inconclusive results are not listed.

Take `N.N.N.N.O=C(O)C1OCCOCCOC(C(=O)O)C(C(=O)O)OCCOCCOC1C(=O)O.[Pt+2].[Pt+2]` (stereo unspecified): the T/C is 100 % of control (endpoint: median survival time, dose: 0.39 mg/kg/injection, schedule: Q04DX003 (ip), vehicle: saline with Tween-80); 98 % of control (endpoint: median survival time, dose: 0.62 mg/kg/injection, schedule: Q04DX003 (ip), vehicle: saline); 107 % of control (endpoint: median survival time, dose: 0.78 mg/kg/injection, schedule: Q04DX003 (ip), vehicle: saline with Tween-80); 100 % of control (endpoint: median survival time, dose: 0.78 mg/kg/injection, schedule: Q04DX003 (ip), vehicle: saline); 98 % of control (endpoint: median survival time, dose: 1.25 mg/kg/injection, schedule: Q04DX003 (ip), vehicle: saline); 107 % of control (endpoint: median survival time, dose: 1.56 mg/kg/injection, schedule: Q04DX003 (ip), vehicle: saline with Tween-80). In addition, the T/C was 101 % of control (endpoint: median survival time, dose: 1.56 mg/kg/injection, schedule: Q04DX003 (ip), vehicle: saline); 98 % of control (endpoint: median survival time, dose: 2.5 mg/kg/injection, schedule: Q04DX003 (ip), vehicle: saline); 110 % of control (endpoint: median survival time, dose: 3.12 mg/kg/injection, schedule: Q04DX003 (ip), vehicle: saline with Tween-80); 107 % of control (endpoint: median survival time, dose: 3.12 mg/kg/injection, schedule: Q04DX003 (ip), vehicle: saline); 102 % of control (endpoint: median survival time, dose: 5.0 mg/kg/injection, schedule: Q04DX003 (ip), vehicle: saline); 118 % of control (endpoint: median survival time, dose: 6.25 mg/kg/injection, schedule: Q04DX003 (ip), vehicle: saline with Tween-80). Further, the T/C runs as follows: (endpoint: median survival time, dose: 6.25 mg/kg/injection, schedule: Q04DX003 (ip), vehicle: saline) 103 % of control; (endpoint: median survival time, dose: 10.0 mg/kg/injection, schedule: Q04DX003 (ip), vehicle: saline) 111 % of control; (endpoint: median survival time, dose: 12.5 mg/kg/injection, schedule: Q04DX003 (ip), vehicle: saline) 107 % of control; (endpoint: median survival time, dose: 20.0 mg/kg/injection, schedule: Q04DX003 (ip), vehicle: saline) 111 % of control; (endpoint: median survival time, dose: 25.0 mg/kg/injection, schedule: Q04DX003 (ip), vehicle: saline with Tween-80) 167 % of control; (endpoint: median survival time, dose: 25.0 mg/kg/injection, schedule: Q04DX003 (ip), vehicle: saline) 123 % of control.
For `CC(C)(CI)CI`, the T/C was 104 % of control (endpoint: mean survival time, dose: 100.0 mg/kg/injection, schedule: Q04DX003 (ip), vehicle: saline with Tween-80); 102 % of control (endpoint: mean survival time, dose: 200.0 mg/kg/injection, schedule: Q04DX003 (ip), vehicle: saline with Tween-80); 96 % of control (endpoint: mean survival time, dose: 400.0 mg/kg/injection, schedule: Q04DX003 (ip), vehicle: saline with Tween-80).
Consider `O=C(O)C(CSC(c1ccccc1)(c1ccccc1)c1ccccc1)N=Cc1cccs1` (stereo unspecified), for which the T/C under setting [1] is 109 % of control; the T/C (endpoint: mean survival time, dose: 12.5 mg/kg/injection, schedule: Q01DX009 (ip), vehicle: suspension in saline) is 113 % of control; the T/C (endpoint: mean survival time, dose: 25.0 mg/kg/injection, schedule: Q01DX009 (ip), vehicle: suspension in saline) is 111 % of control; the T/C (endpoint: mean survival time, dose: 66.0 mg/kg/injection, schedule: Q01DX009 (ip), vehicle: saline) is 163 % of control; the T/C under setting [2] is 172 % of control; the T/C under setting [3] is 163 % of control. In addition, the T/C reads like this: (endpoint: mean survival time, dose: 100.0 mg/kg/injection, schedule: Q01DX009 (ip), vehicle: suspension in saline) 173 % of control; under setting [4], 118 % of control; under setting [5], 90 % of control; (endpoint: mean survival time, dose: 200.0 mg/kg/injection, schedule: Q01DX009 (ip), vehicle: suspension in saline) 94 % of control.
On to `CC(C)[CH2][Sn]([CH2]C(C)C)([CH2]C(C)C)[O]C(=O)C1(C)CCCC2(C)C3CCC(C(C)C)=CC3=CCC12` (stereo unspecified), for which the T/C is 97 % of control (endpoint: mean survival time, dose: 3.12 mg/kg/injection, schedule: Q01DX009 (ip), vehicle: saline with Tween-80); 90 % of control (endpoint: mean survival time, dose: 6.25 mg/kg/injection, schedule: Q01DX009 (ip), vehicle: saline with Tween-80); 93 % of control under setting [6].
For the molecule `O=c1cn[nH]c2c(Cl)cccc12`, the T/C is, setting by setting: (endpoint: mean survival time, dose: 100.0 mg/kg/injection, schedule: Q01DX001 (ip), vehicle: carboxymethylcellulose (CMC)) 106 % of control; (endpoint: mean survival time, dose: 200.0 mg/kg/injection, schedule: Q01DX001 (ip), vehicle: carboxymethylcellulose (CMC)) 95 % of control.
Turning to `CC1(C)OCC(COCc2ccccc2)O1` (stereo unspecified), the T/C was 96 % of control under setting [3]; 91 % of control under setting [5]; 96 % of control (endpoint: mean survival time, dose: 400.0 mg/kg/injection, schedule: Q01DX009 (ip), vehicle: saline).
Regarding `COc1cc(OC)cc(C(=O)Cl)c1`, the T/C reads like this: (endpoint: mean survival time, dose: 100.0 mg/kg/injection, schedule: Q04DX003 (ip), vehicle: saline sonified) 98 % of control; (endpoint: mean survival time, dose: 200.0 mg/kg/injection, schedule: Q04DX003 (ip), vehicle: saline sonified) 95 % of control; (endpoint: mean survival time, dose: 400.0 mg/kg/injection, schedule: Q04DX003 (ip), vehicle: saline sonified) 91 % of control.
For `N#Cc1cccnc1Cl`, the T/C by setting is: (endpoint: median survival time, dose: 50.0 mg/kg/injection, schedule: Q04DX002 (ip), vehicle: saline with Tween-80) 100 % of control; (endpoint: median survival time, dose: 100.0 mg/kg/injection, schedule: Q04DX002 (ip), vehicle: saline with Tween-80) 100 % of control; (endpoint: median survival time, dose: 200.0 mg/kg/injection, schedule: Q04DX002 (ip), vehicle: saline with Tween-80) 111 % of control.
Turning to `O=C1C2(c3ccccc3)CCC1(c1ccccc1)C(c1ccccc1)=C2c1ccccc1`, the T/C was 94 % of control (endpoint: mean survival time, dose: 25.0 mg/kg/injection, schedule: Q01DX001 (ip), vehicle: saline with Tween-80); 87 % of control (endpoint: mean survival time, dose: 50.0 mg/kg/injection, schedule: Q01DX001 (ip), vehicle: saline with Tween-80); 90 % of control (endpoint: mean survival time, dose: 100.0 mg/kg/injection, schedule: Q01DX001 (ip), vehicle: saline with Tween-80).
Take `c1ccc([P+](Cc2ccc3ccccc3n2)(c2ccccc2)c2ccccc2)cc1`: the T/C (endpoint: mean survival time, dose: 6.25 mg/kg/injection, schedule: Q01DX009 (ip), vehicle: saline) was 108 % of control and the T/C under setting [1] is 112 % of control.
In the case of `O=C(NO)c1cccc(O)c1O`, the T/C reads like this: (endpoint: median survival time, dose: 200.0 mg/kg/injection, schedule: Q01DX009 (ip), vehicle: distilled water + Tween-80) 162 % of control; (endpoint: median survival time, dose: 300.0 mg/kg/injection, schedule: Q01DX009 (ip), vehicle: distilled water + Tween-80) 170 % of control; (endpoint: median survival time, dose: 450.0 mg/kg/injection, schedule: Q01DX009 (ip), vehicle: distilled water + Tween-80) 104 % of control.
As for `C1=CC2OC1c1cc3ccccc3cc12`, the T/C reads like this: (endpoint: mean survival time, dose: 100.0 mg/kg/injection, schedule: Q04DX003 (ip), vehicle: other) 121 % of control; (endpoint: mean survival time, dose: 200.0 mg/kg/injection, schedule: Q04DX003 (ip), vehicle: other) 105 % of control.
Take `CN(C)c1ccccc1C1=CCCCC1`: the T/C (endpoint: mean survival time, dose: 50.0 mg/kg/injection, schedule: Q04DX003 (ip), vehicle: saline) was 96 % of control; the T/C (endpoint: mean survival time, dose: 100.0 mg/kg/injection, schedule: Q04DX003 (ip), vehicle: saline) is 98 % of control; the T/C (endpoint: mean survival time, dose: 200.0 mg/kg/injection, schedule: Q04DX003 (ip), vehicle: saline) is 104 % of control.
With `COc1ccc(NC(=O)Nc2ccccc2C)c(Cl)c1`, the T/C is, setting by setting: (endpoint: mean survival time, dose: 25.0 mg/kg/injection, schedule: Q04DX002 (ip), vehicle: saline with Tween-80) 94 % of control; (endpoint: mean survival time, dose: 50.0 mg/kg/injection, schedule: Q04DX002 (ip), vehicle: saline with Tween-80) 98 % of control; (endpoint: mean survival time, dose: 100.0 mg/kg/injection, schedule: Q04DX002 (ip), vehicle: saline with Tween-80) 86 % of control and 90 % of control; (endpoint: mean survival time, dose: 400.0 mg/kg/injection, schedule: Q04DX002 (ip), vehicle: saline with Tween-80) 86 % of control.
For `Cc1cccc(C(=O)C=C(C(F)(F)F)C(F)(F)F)c1`, the T/C under setting [6] was 103 % of control and the T/C (endpoint: mean survival time, dose: 25.0 mg/kg/injection, schedule: Q01DX009 (ip), vehicle: saline with Tween-80) was 113 % of control.
For the molecule `CCOC(=O)C(SC)(SC)C(=O)OCC`, the T/C is, setting by setting: (endpoint: mean survival time, dose: 100.0 mg/kg/injection, schedule: Q01DX001 (ip), vehicle: Klucel (hydroxypropylcellulose) (HPC)) 106 % of control; (endpoint: mean survival time, dose: 200.0 mg/kg/injection, schedule: Q01DX001 (ip), vehicle: Klucel (hydroxypropylcellulose) (HPC)) 109 % of control; (endpoint: mean survival time, dose: 400.0 mg/kg/injection, schedule: Q01DX001 (ip), vehicle: Klucel (hydroxypropylcellulose) (HPC)) 103 % of control.
Regarding `CCOCc1cccc2ccccc12`, the T/C under setting [2] is 98 % of control; the T/C under setting [4] was 102 % of control; the T/C (endpoint: mean survival time, dose: 400.0 mg/kg/injection, schedule: Q01DX009 (ip), vehicle: saline with Tween-80) is 94 % of control.
Take `COC(=O)c1cc(-c2ccccc2)nc2c1ccc1ccccc12`: for the setting “endpoint: mean survival time, dose: 100.0 mg/kg/injection, schedule: Q01DX001 (ip), vehicle: saline”, the T/C is 94 % of control.
